Test results from patent EP0043274A2, “Antithrombotic treatment” (priority 1980, dated 1982).
“And” between values parts separate entries of the source, which are not always exact repeats. Equal values may be shown once. Read-outs that look alike come from different tables or passages of the source.

Key:
human plasma [1] = type: biochemical; conditions: for PT (effect in words): in vitro, 0.5 mg/ml
human plasma [2] = type: biochemical; conditions: for PTT (effect in words): in vitro
[3] = test system: thrombus formation in the jugular vein; assay: I 125 fibrinogen technique, damaged jugular vein (venous thrombosis), continuous infusion; type: in vivo, rabbits; conditions: for thrombus formation in the jugular vein (conclusion in words): continuous infusion for five hours
Experimental: The anti venous thrombotic effect of sodium bisulfite is evaluated in rabbits by using I ^125 fibrinogen technique as described in an article in "Archives of Surgery" Vol. 104, pg. 152 (1972).
The rabbit was continuously infused with aqueous sodium bisulfite solution at the rate of […]. (5.154 gram per hour) (animal body weight 2.3 kg) for a time of five hours. After 5 hours, the animal was sacrificed and the radioactive fibrinogen accumulated in the damaged jugular vein was determined. The radioactivity on the contra-lateral (undamaged) jugular vein was also determined to serve as a control. Concurrently, another rabbit had experienced the same procedure but received only a standard sodium chloride solution as a control. The rabbit from the normal saline solution has seven times as much radioactivity as his counterpart infused with sodium bisulfite.
Two jugular veins on a normal, healthy rabbit are exposed and one of the veins is systematically damaged by clamping in two longitudinally spaced places. The rabbit is then continuously infused with aqueous sodium formaldehyde bisulfite at the rate of […] (5.154 gram per hour) (animal body weight 2.3 kg). The rabbit is then injected with fibrinogen labeled with I^125. After 5 hours, the damaged jugular vein is evaluated for radioacive count with a Geiger counter.
This iodine 125 evaluation technique is described by Kakkar in Archieves of Surgery, Vol. 104, pg. 152 (1972) and by Kelton, J.G. et al, Journal of Clinical Investigation, Vol. 62, pgs. 892-895, (1978). […] Other rabbits, similarly evaluated, died, apparently because of overdose by the infustion technique.

[4] = amine bisulfites, control plasma 12.8 / 13.1

## OCCNCCO [DIETHANOL AMINE]
Human plasma [1]; [4]
  PT REPLICATIONS 1: 20.6
  PT REPLICATIONS 2: 19.8
Human plasma [1]; amine bisulfites, control plasma 13.1 / 13.0
  PT REPLICATIONS 3: 19.7
Human plasma [2]
  PTT REPLICATIONS 2: 58.0
Human plasma [2]; amine bisulfites, control plasma 37.5 / 38.2
  PTT REPLICATIONS 1: 62.6
Human plasma [2]; amine bisulfites, control plasma 37.8 / 39.2
  PTT REPLICATIONS 3: 60.6
[3]
  thrombus formation in the jugular vein (conclusion in words): definite positive antithrombotic effect

## CCCCCCCCN.O=S(O)O [n-octyl amine bisulfite]
[3]
  thrombus formation in the jugular vein (conclusion in words): definite positive antithrombotic effect

## CCCC[N+](CCCC)(CCCC)CCCC [tetrabutyl ammonium bisulfite]
[3]; continuous infusion .001 mg/kg min (5.154 gram per hour) for five hours
  radioactivity (I 125 fibrinogen) in damaged jugular vein of saline control rabbit relative to treated rabbit: approximately 7 times

## CCCCN(CCCC)CCCC.O=S(O)O [tri-n-butyl amine bisulfite]
[3]
  thrombus formation in the jugular vein (conclusion in words): definite positive antithrombotic effect

## Sodium Sulfite
Human plasma [1]
  PT: 16.38 s
  PT(seconds) Exp. 1 A: 16.8 s and 16.2 s
  PT(seconds) Exp. 2 A: 17.7 s
Human plasma [1]; coded agents 0.5mg/ml, […], control 12.92
  PT: 16.14 s
Human plasma [2]
  PTT(seconds) Exp. 1 A: 74.8 s and 66.1 s
Human plasma [2]; 0.5 mg/ml, two different days, control 42.6 / 42.10
  PTT: 66.53 s
Human plasma [2]; Active Agent 0.5/ml, test sequences A and B, control 50.5 (A), 44.5 (B)
  PTT(seconds) Exp. 2 A: 82.1 s and 80.7 s
Human plasma [2]; coded agents 0.5mg/ml, […], control 43.38
  PTT: 64.62 s

## Sodium thiosulfate [SI6, reference compound]
Human plasma [1]
  PT: 13.5 s
Human plasma [2]
  PTT: 46.2 s

## benzaldhyde [reference compound]
Human plasma [1]
  PT (effect in words): minimal effect
Human plasma [2]; 0.5 mg/ml
  PTT (effect in words): minimal effect

## cyclohexane [reference compound]
Human plasma [1]
  PT (effect in words): minimal effect
Human plasma [2]; 0.5 mg/ml
  PTT (effect in words): minimal effect
